# Results as given in patent publication US20250261660A1, “FORMULATIONS AND METHODS FOR USE IN OXIDATION TREATMENT APPLICATIONS” (priority 2022, published 2025).
# Test system: microbial control in water
# Experiment: Microbial control in water at slightly alkaline pH, comparison of oxidants
# Assay type: cell-based
# From the text: (§1) In some embodiments, microbial control in water at slightly alkaline pH was compared between peracetate oxidant, chlorine bleach, peracetic acid and chlorine dioxide. Alkaline pH is encountered in a variety of applications where microbial control and sanitization is needed, including pulp and paper processing.
# as §1, with “water treatment” for “pulp”, “chill tanks in poultry processing, a type of food” for “paper”
row,Structure (SMILES),performance as antimicrobial disinfectant
1,"OCl [chlorine bleach, hypochlorite]",lowest performance
2,[O][Cl+][O-] [chlorine dioxide],performed well
3,CC(=O)OO [peracetic acid],lowest performance
